Experimental findings from patent publication US20050090529A1, “3,5 Disubstituted indazole compounds with nitrogen-bearing 5-membered heterocycles, pharmaceutical compositions, and methods for mediating or inhibiting cell proliferation” (PFIZER INC, priority 2003, published 2005) are described below.

The test system of the experiment is Cyclin-dependent kinase. In words: Cyclin-dependent kinase inhibition, % inhibition at 10 nM (library Examples 99-270). As to conditions: 10 nM compound. In kind it is biochemical. The procedure: Cyclin-dependent kinase activity was measured by quantifying the enzyme-catalyzed, time-dependent incorporation of radioactive phosphate from [^32P]ATP or [^33P]ATP into a protein substrate. Unless noted otherwise, assays were performed in 96-well plates in a total volume of 50 μL, in the presence of 10 mM HEPES (N-[2-hydroxyethyl]piperazine-N′-[2-ethanesulfonic acid]) (pH 7.4), 10 mM MgCl2, 25 μM adenosine triphosphate (ATP), 1 mg/mL ovalbumin, 5 μg/mL leupeptin, 1 mM dithiothreitol, 10 mM beta-glycerophosphate, 0.1 mM sodium vanadate, 1 mM sodium fluoride, 2.5 mM ethylene glycol-bis(β-aminoethyl ethKer)-N,N,N′N′-tetraacetic acid (EGTA), 2% (v/v) dimethylsulfoxide, and 0.03-0.4 μCi [^32/33P]ATP per reaction. Reactions were initiated with enzyme, incubated at 30° C., and terminated after 20 minutes by the addition of ethylenediaminetetraacetic acid (EDTA) to 250 mM. The phosphorylated substrate was then captured on a nitrocellulose or phosphocellulose membrane using a 96-well filtration manifold, and unincorporated radioactivity was removed by repeated washing with 0.85% phosphoric acid. Radioactivity was quantified by exposing the dried membranes to a phosphorimager.
Results of assays performed on compounds, which include the specific examples described above are provided in Examples 99-274 above, and in Table 1 below. Unless indicated otherwise in a particular entry, the units and assays used are as indicated in the applicable column of the table.
Turning to `CCCCN(CCC#N)C(=O)c1cnc(-c2n[nH]c3ccc(-c4cncc(CNCC)c4C)cc23)[nH]1` [Example 164, N-butyl-N-(2-cyanoethyl)-2-(5-{5-[(ethylamino)methyl]4-methylpyridin-3-yl}-1H-indazol-3-yl)-1H-imidaole-5-carboxamide], the “% Inhib @ 10 nM” value is 69%.
In the case of `CCNCc1cncc(-c2ccc3[nH]nc(-c4ncc(C(=O)N(C)CCc5ccc(OC)c(OC)c5)[nH]4)c3c2)c1C` [Example 165, N-[2-(3,4-dimethoxyphenyl)ethyl]-2-(5-{5-[(ethylamino)methyl]-4-methylpyridin-3-yl}-1H-indazol-3-yl)-N-methyl-1H-imidazole-5-carboxamide], the “% Inhib @ 10 nM” value came to 37%.
`CCNCc1cncc(-c2ccc3[nH]nc(-c4ncc(C(=O)NCC5CCCCC5)[nH]4)c3c2)c1C` [Example 166, N-(cyclohexylmethyl)-2-(5-{5-[(ethylamino)methyl]-4-methylpyridin-3-yl}-1H-indazol-3-yl)-1H-imidazole-5-carboxamide]: the “% Inhib @ 10 nM” value worked out at 73%.
On to `CCNCc1cncc(-c2ccc3[nH]nc(-c4ncc(C(=O)NCCc5cc(OC)c(O)c(OC)c5)[nH]4)c3c2)c1C` [Example 167], for which the “% Inhib @ 10 nM” value worked out at 28%.
For the molecule `CCNCc1cncc(-c2ccc3[nH]nc(-c4ncc(C(=O)N5CCN(CCOC)CC5)[nH]4)c3c2)c1C` [Example 169, ethyl({5-[3-(5-{[4-(2-methoxyethyl)piperazin-1-yl]carbonyl}-1H-imidazol-2-yl)-1H-indazol-5-yl]-4-methylpyridin-3-yl}methyl)amine], the “% Inhib @ 10 nM” value was determined as 37%.
In the case of `CCNCc1cncc(-c2ccc3[nH]nc(-c4ncc(C(=O)N5CCC(CNC(=O)C(F)(F)F)CC5)[nH]4)c3c2)c1C` [Example 170, N-[(1-{[2-(5-{5-[(ethylamino)methyl]-4-methylpyridin-3yl}-1H-indazol-3-yl)-1H-imidazol-5-yl]carbonyl}piperidin-4-yl)methyl]-2,2,2-trifluoroacetamide], the “% Inhib @ 10 nM” value is reported as 29%.
Next, `CCNCc1cncc(-c2ccc3[nH]nc(-c4ncc(C(=O)N5CCC(C(=O)c6ccccc6)CC5)[nH]4)c3c2)c1C` [Example 171, (1-{[2-(5-{5[(ethylamino)methyl]-4-methylpyridin-3-yl}-1H-indazol-3-yl)-1H-imidazol-5-yl]carbonyl}piperidin-4-yl)(phenyl)methanone]: 65%.
In the case of `CCNCc1cncc(-c2ccc3[nH]nc(-c4ncc(C(=O)NC(CO)CCSC)[nH]4)c3c2)c1C` (centres unmarked) [Example 172], the “% Inhib @ 10 nM” value turned out to be 36%.
Consider `CCNCc1cncc(-c2ccc3[nH]nc(-c4ncc(C(=O)N[C@H](CO)Cc5ccc(O)cc5)[nH]4)c3c2)c1C` [Example 173], for which the “% Inhib @ 10 nM” value is given as 45%.
Next, `CCNCc1cncc(-c2ccc3[nH]nc(-c4ncc(C(=O)NCCCSC)[nH]4)c3c2)c1C` [Example 174, 2-(5-{5-[(ethylamino)methyl]-4-methylpyridin-3-yl}-1H-indazol-3-yl)-N-[3-(methylthio)propyl]1H-imidazole-5-carboxamide]: 41%; `CCNCc1cncc(-c2ccc3[nH]nc(-c4ncc(C(=O)N(CC)CCOC)[nH]4)c3c2)c1C` [Example 175, N-ethyl-2-(5-{5-[(ethylamino)methyl]-4-methylpyridin-3-yl}-1H-indazol-3-yl)-N-(2-methoxyethyl)-1H-imidazole-5-carboxamide]: 68%; `CCNCc1cncc(-c2ccc3[nH]nc(-c4ncc(C(=O)N[C@H](C(=O)NC)[C@@H](C)O)[nH]4)c3c2)c1C` [Example 176, 2-(5-{5-[(ethylamino)methyl]-4-methylpyridin-3-yl}-1H-indazol-3-yl)-N-{(1S,2R)-2-hydroxy-1-[(methylamino)carbonyl]propyl}-1H-imidazole-5-carboxamide]: 59%.
On to `CCNCc1cncc(-c2ccc3[nH]nc(-c4ncc(C(=O)N5CCC(CO)CC5)[nH]4)c3c2)c1C` [Example 177, (1-{[2-(5-{5-[(ethylamino)methyl]-4-methylpyridin-3-yl}-1H-indazol-3-yl)-1H-imidazol-5-yl]carbonyl}piperidin-4-yl)methanol], for which the “% Inhib @ 10 nM” value was 63%.
Regarding `CCNCc1cncc(-c2ccc3[nH]nc(-c4ncc(C(=O)N(C)CC)[nH]4)c3c2)c1C` [Example 178, N-ethyl-2-(5-{5-[(ethylamino)methyl]-4-methylpyridin-3-yl}-1H-indazol-3-yl)-N-methyl-1H-imidazole-5-carboxamrde], the “% Inhib @ 10 nM” value is recorded as 73%.
With `CCNCc1cncc(-c2ccc3[nH]nc(-c4ncc(C(=O)N5CCCN(C(C)=O)CC5)[nH]4)c3c2)c1C` [Example 179, {[5-(3-(5-[(4-acetyl-1,4-diazepan-1-yl)carbonyl]-1H-imidazol-2-yl]-1H-indazol-5-yl)-4-methylpyridin-3-yl]methyl}ethylamine], the “% Inhib @ 10 nM” value is on record as 53%.
For the molecule `CCNCc1cncc(-c2ccc3[nH]nc(-c4ncc(C(=O)N5CCN(CCCN6CCOCC6)CC5)[nH]4)c3c2)c1C` [Example 180], the “% Inhib @ 10 nM” value came out at 22%.
Consider `CCNCc1cncc(-c2ccc3[nH]nc(-c4ncc(C(=O)N5CCN(Cc6ccc(OC)cc6)CC5)[nH]4)c3c2)c1C` [Example 181, ethyl({5-[3-(5-{[4-(4-methoxybenzyl)piperazin-1-yl]carbonyl}1H-imidazol-2-yl)-1H-indazol-5-yl]-4-methylpyridin-3-yl}methyl)amine], for which the “% Inhib @ 10 nM” value was 57%.
Take `CCNCc1cncc(-c2ccc3[nH]nc(-c4ncc(C(=O)N5CCN(CC(=O)N(C)C)CC5)[nH]4)c3c2)c1C` [Example 182]: the “% Inhib @ 10 nM” value is 40%.
Next, `CCNCc1cncc(-c2ccc3[nH]nc(-c4ncc(C(=O)N5CCCC(c6nc7ccccc7[nH]6)C5)[nH]4)c3c2)c1C` (centres unmarked) [Example 183, ({5-[3-(5-{[3-(1H-benzimidazol-2-yl)piperidin-1-yl]carbonyl}-1H-imidazol-2-yl)-1H-indazol-5-yl]-4-methylpyridin-3-yl}methyl)ethylamine]: 42%.
`CCNCc1cncc(-c2ccc3[nH]nc(-c4ncc(C(=O)NCC5CCNCC5)[nH]4)c3c2)c1C` [Example 184]: the “% Inhib @ 10 nM” value turned out to be 21%.
In the case of `CCNCc1cncc(-c2ccc3[nH]nc(-c4ncc(C(=O)N[C@@H](CO)Cc5c[nH]c6ccccc56)[nH]4)c3c2)c1C` [Example 185, 2-(5-{5-[(ethylamino)methyl]-4-methylpyridin-3-yl}-1H-indazol-3-yl)-N-[(1R)-2-hydroxy-1-(1H-indol-3-ylmethyl)ethyl]-1H-imidazole-5-carboxamide] it was 52%; in that of `CCNCc1cncc(-c2ccc3[nH]nc(-c4ncc(C(=O)N5C[C@@H]6C[C@H]5CO6)[nH]4)c3c2)c1C` [Example 186, ethyl{[4-methyl-5-(3-{5-[(1S,4S)-2-oxa-5-azabicyclo[2.2.1]hept-5-ylcarbonyl]-1H-imidazol-2-yl)-1H-indazol-5-yl)pyridin-3-yl]methyl}amine], 61%.
In the case of `CCNCc1cncc(-c2ccc3[nH]nc(-c4ncc(C(=O)N5CC6C[C@H]5CN6)[nH]4)c3c2)c1C` [Example 187], the “% Inhib @ 10 nM” value is 44%.
`CCNCc1cncc(-c2ccc3[nH]nc(-c4ncc(C(=O)NCc5ccc(C(F)(F)F)nc5)[nH]4)c3c2)c1C` [Example 188, 2-(5-{5-[(ethylamino)methyl]-4-methylpyridin-3-yl}-1H-indazol-3-yl)-N-{(6-(trifluoromethyl)pyridin-3-yl]methyl}-1H-imidazole-5-carboxamide]: the “% Inhib @ 10 nM” value is reported as 41%.
As to `CCNCc1cncc(-c2ccc3[nH]nc(-c4ncc(C(=O)NCCCc5c[nH]cn5)[nH]4)c3c2)c1C` [Example 189, 2-(5-{5-[(ethylamino)methyl]-4-methylpyridin-3-yl}-1H-indazol-3-yl)-N-[3-(1H-imidazol-4-yl)propyl]-1H-imidazole-5-carboxamide], the “% Inhib @ 10 nM” value came to 59%.
Regarding `CCNCc1cncc(-c2ccc3[nH]nc(-c4ncc(C(=O)N(C)C)[nH]4)c3c2)c1C` [Example 190, 2-(5-{5-[(ethylamino)methyl}-4-methylpyridin-3-yl}-1H-indazol-3-yl)-N,N-dimethyl-1H-imidazole-5-carboxamide], the “% Inhib @ 10 nM” value came out at 76%.
Turning to `CCNCc1cncc(-c2ccc3[nH]nc(-c4ncc(C(=O)N5CCC(c6cccc(O)c6)CC5)[nH]4)c3c2)c1C` [Example 191, 3-(1-{[2-(5-{5-[(ethylamino)methyl]-4-methylpyridin-3-yl}-1H-indazol-3-yl)-1H-imidazol-5-yl]carbonyl}piperidin-4-yl)phenol], the “% Inhib @ 10 nM” value stood at 74%.
Next, `CCNCc1cncc(-c2ccc3[nH]nc(-c4ncc(C(=O)NCCC5CCN(Cc6ccccc6)CC5)[nH]4)c3c2)c1C` [Example 192, N-[2-(1-benzylpiperidin-4-yl)ethyl]-2-(5-{5-[(ethylamino)methyl]-4-methylpyridin-3-yl}-1H-indazol-3-yl)-1H-imidazole-5-carboxamide]: 30%; `CCNCc1cncc(-c2ccc3[nH]nc(-c4ncc(C(=O)N5C[C@@H]6[C@@H](N)[C@@H]6C5)[nH]4)c3c2)c1C` [Example 193]: 52%.
